Patent US7101876B2, “Substituted benzoxazines as integrin antagonists” (Pharmacia Corporation, priority 2001, dated 2006)

What was measured:
human αvβ3 integrin = molecular target: T1, human αvβ3 integrin (Homo sapiens, UniProt P05106+P06756); assay: αvβ3-vitronectin binding assay (solid phase)
T1 construct: Human vitronectin receptor (αvβ3) was purified from human placenta; from tissue; host or cells: human placenta
Procedure: (§1) A solid phase assay for the study of αvβ3-vitronectin binding was set up on the basis of already published methods (WONG et al., Molecular Pharmacology 50: 529–537, 1996; Brooks et al., Cell 85: 683–693, 1996). The human αvβ3 integrin was diluted into coating buffer (CB) containing 150 mM NaCl, 1 mM CaCl2, 1 mM MgCl2, 1 mM MnCl2, 20 mM TRIS, pH 7.4 at a concentration of 1.5 μg/ml. Into 96-well plates, 50 μl of the diluted integrin were added and allowed to bind to the plate walls overnight at 4° C. Next day, the assay plates were emptied and 100 μl of blocking buffer (CB buffer with 3% BSA) were added to each well for 45 min at 37° C. […] Then, the plates were washed as described and 50 μl of ready to use Turbo-TMB substrate for peroxydase were added to each well. After 30 minutes incubation at room temperature, the color development was stopped with 50 μl sulphuric acid 0.38 M and the plates were read at a wavelength of 450 nm with a Packard plate reader. The values obtained were analyzed by four parameters curve fit in the computer program GraphPad Prism, after normalization by a maximum binding control (Bmax) detected in wells where no competitor was added, and a minimum binding control (NSB) detected in wells where no integrin was coated. […]

αIIbβ3 integrin = molecular target: T2, αIIbβ3 integrin (Homo sapiens, UniProt P05106+P08514); assay: αIIbβ3-fibrinogen binding assay (solid phase); settings: inhibition of biotinylated fibrinogen (10 nM) binding to coated integrin; read-out: αIIbβ3 (IC50 μmol)
T2 construct: Human fibrinogen receptor (αIIbβ3) was purified from human platelets; from tissue; host or cells: human platelets
Procedure: as §1, with “of αIIbβ3-fibrinogen” for “of αvβ3-vitronectin”, “up according to” for “up on”, “the method described for αvβ3. αIIbβ3” for “the basis of already published methods (WONG et al., Molecular Pharmacology 50: 529–537, 1996; Brooks et al., Cell 85: 683–693, 1996). The human αvβ3”, “mM Cacl2,” for “mM CaCl2,”, “of 3” for “of 1.5”, “fit with” for “fit in”

T1 sequence (P06756 31-889 limits assumed): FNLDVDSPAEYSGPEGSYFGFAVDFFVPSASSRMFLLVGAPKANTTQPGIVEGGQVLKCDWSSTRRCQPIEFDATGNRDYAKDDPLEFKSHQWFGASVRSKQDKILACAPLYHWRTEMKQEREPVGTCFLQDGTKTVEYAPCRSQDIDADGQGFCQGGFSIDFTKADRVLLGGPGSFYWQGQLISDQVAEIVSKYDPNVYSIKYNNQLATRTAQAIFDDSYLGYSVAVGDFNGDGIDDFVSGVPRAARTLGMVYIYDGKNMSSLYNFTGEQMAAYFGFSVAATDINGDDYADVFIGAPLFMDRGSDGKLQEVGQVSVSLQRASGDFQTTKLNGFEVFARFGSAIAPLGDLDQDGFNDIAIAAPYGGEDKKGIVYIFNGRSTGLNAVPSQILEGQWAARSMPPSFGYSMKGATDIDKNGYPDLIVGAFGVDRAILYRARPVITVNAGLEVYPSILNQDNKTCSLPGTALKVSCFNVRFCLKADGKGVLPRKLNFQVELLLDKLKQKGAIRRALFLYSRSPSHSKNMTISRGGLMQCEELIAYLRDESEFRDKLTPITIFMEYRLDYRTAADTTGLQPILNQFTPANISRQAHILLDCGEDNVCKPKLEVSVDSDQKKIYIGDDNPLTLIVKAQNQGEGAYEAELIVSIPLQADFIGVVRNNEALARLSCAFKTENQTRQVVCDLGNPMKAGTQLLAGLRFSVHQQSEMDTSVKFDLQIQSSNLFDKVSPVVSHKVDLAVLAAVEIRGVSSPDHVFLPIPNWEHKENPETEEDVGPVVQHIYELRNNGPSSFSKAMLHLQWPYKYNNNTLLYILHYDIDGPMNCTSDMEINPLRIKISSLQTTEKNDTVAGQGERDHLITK
T1 sequence (P06756 891-1048 partner limits assumed): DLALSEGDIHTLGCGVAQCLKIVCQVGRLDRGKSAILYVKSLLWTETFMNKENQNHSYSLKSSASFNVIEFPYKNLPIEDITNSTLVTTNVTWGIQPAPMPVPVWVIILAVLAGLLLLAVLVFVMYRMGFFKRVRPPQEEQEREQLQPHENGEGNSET
T1 sequence (P05106 27-788): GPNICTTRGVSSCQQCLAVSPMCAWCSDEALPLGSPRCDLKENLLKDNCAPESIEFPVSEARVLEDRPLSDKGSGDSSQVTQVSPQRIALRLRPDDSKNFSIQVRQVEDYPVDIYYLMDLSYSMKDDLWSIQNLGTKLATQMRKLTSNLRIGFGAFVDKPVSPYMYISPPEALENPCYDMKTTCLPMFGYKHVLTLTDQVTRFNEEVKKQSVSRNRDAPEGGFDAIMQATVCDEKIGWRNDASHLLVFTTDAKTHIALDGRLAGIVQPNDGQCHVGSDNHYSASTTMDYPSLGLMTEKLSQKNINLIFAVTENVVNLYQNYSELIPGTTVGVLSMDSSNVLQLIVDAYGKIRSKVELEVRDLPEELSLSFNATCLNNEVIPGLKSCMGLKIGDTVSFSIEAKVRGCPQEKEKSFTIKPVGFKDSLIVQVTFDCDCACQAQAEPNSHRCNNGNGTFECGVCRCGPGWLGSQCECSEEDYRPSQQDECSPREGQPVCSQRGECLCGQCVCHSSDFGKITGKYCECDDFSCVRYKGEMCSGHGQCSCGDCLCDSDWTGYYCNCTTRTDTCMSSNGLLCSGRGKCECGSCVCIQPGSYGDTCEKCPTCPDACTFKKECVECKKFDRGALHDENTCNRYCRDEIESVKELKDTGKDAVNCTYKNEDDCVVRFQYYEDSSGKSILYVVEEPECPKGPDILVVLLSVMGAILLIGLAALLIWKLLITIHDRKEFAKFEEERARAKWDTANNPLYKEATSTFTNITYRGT
T2 sequence (P08514 32-887 limits assumed): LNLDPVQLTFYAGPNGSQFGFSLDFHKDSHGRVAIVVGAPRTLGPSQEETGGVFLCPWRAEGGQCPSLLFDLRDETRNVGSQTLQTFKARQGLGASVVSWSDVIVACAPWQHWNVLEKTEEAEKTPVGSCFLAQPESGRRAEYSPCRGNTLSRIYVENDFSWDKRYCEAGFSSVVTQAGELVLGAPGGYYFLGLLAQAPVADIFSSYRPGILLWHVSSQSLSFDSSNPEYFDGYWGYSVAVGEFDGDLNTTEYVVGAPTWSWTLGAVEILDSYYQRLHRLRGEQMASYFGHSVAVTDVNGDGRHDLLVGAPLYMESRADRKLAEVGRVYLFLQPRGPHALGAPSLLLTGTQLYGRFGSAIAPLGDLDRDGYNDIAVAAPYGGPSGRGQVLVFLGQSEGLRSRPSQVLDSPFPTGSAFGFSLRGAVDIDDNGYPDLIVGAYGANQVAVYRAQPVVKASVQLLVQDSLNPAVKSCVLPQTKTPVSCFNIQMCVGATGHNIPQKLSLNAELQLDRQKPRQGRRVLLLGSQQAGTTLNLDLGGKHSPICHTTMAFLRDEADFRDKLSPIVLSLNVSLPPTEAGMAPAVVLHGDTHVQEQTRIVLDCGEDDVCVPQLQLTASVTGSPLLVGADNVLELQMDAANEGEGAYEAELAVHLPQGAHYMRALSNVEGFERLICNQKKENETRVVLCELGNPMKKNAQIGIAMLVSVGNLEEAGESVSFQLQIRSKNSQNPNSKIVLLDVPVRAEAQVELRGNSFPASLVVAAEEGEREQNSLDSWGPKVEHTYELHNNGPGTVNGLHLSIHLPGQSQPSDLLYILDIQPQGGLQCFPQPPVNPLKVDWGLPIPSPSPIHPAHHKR
T2 sequence (P08514 891-1039 partner limits assumed): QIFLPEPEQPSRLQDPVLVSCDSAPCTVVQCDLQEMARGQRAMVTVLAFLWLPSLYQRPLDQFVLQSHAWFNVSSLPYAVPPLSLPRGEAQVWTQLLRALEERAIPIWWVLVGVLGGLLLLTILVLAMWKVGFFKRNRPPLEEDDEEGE
T2 sequence (P05106 27-788): as the sequence (P05106 27-788) above

Question: Which results are given for `O=C(O)CC(Nc1ccc2c(c1)OCC(=O)N2CCCNc1ccccn1)c1ccccc1` (stereo not drawn) [3-{4-[3-(N-(2-pyridinyl)amino)propyl]-3-oxo-3,4-dihydro-2H-1,4-benzoxazin-7-yl)amino}-3-phenylpropanoic acid]?
Answer: IC50 (human αvβ3 integrin; inhibition of biotinylated vitronectin (5 nM) binding to coated integrin, read-out: αvβ3 (IC50 μmol)): 11 ± 4 nM; ratio between αIIbβ3 and αvβ3 inhibiting activity (human αvβ3 integrin; selectivity, αIIbβ3 IC50 / αvβ3 IC50): about 1,000; IC50 (αIIbβ3 integrin): 18 µM
